# According to patent publication US10168342B2, “Lipid probes and uses thereof” (THE SCRIPPS RESEARCH INSTITUTE, priority 2015, dated 2019):
# How the values were obtained:
# Experiment in all cases: In situ competitive SILAC profiling with A-DA probe in (PMA-stimulated) A549 cells
# Conditions in all cases: A549 cells, A-DA probe
# [1] = molecular target: A-DA lipid probe targets in A549 cells (Homo sapiens, UniProt Q9NX47)
# [2] = molecular target: T1, A-DA lipid probe targets in A549 cells (Homo sapiens, UniProt Q9HAW7)
# T1 sequence (Q9HAW7 26-530): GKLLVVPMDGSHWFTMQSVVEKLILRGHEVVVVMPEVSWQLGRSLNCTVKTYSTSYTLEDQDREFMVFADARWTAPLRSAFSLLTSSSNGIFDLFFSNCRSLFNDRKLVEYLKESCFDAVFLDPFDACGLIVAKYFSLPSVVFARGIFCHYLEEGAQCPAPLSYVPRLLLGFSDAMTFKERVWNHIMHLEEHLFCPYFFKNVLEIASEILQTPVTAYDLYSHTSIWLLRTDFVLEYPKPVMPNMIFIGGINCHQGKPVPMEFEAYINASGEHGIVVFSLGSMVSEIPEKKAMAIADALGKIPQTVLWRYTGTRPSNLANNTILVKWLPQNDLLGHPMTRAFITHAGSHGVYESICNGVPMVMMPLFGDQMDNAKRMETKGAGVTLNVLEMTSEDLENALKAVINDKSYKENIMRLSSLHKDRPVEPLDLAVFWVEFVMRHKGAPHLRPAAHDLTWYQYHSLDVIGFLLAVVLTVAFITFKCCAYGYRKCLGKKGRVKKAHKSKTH
# [3] = molecular target: T2, A-DA lipid probe targets in A549 cells (Homo sapiens, UniProt O75911)
# T2 sequence (O75911 1-302): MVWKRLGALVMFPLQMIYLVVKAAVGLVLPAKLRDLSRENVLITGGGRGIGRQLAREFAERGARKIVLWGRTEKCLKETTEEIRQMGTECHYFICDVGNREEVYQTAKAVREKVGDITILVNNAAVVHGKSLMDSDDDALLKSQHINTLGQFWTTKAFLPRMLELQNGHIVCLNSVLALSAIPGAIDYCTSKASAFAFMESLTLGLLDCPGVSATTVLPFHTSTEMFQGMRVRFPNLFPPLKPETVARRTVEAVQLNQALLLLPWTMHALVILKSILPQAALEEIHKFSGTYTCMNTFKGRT
# [4] = molecular target: T3, A-DA lipid probe targets in A549 cells (Homo sapiens, UniProt Q7Z2K6)
# T3 sequence (Q7Z2K6 1-904): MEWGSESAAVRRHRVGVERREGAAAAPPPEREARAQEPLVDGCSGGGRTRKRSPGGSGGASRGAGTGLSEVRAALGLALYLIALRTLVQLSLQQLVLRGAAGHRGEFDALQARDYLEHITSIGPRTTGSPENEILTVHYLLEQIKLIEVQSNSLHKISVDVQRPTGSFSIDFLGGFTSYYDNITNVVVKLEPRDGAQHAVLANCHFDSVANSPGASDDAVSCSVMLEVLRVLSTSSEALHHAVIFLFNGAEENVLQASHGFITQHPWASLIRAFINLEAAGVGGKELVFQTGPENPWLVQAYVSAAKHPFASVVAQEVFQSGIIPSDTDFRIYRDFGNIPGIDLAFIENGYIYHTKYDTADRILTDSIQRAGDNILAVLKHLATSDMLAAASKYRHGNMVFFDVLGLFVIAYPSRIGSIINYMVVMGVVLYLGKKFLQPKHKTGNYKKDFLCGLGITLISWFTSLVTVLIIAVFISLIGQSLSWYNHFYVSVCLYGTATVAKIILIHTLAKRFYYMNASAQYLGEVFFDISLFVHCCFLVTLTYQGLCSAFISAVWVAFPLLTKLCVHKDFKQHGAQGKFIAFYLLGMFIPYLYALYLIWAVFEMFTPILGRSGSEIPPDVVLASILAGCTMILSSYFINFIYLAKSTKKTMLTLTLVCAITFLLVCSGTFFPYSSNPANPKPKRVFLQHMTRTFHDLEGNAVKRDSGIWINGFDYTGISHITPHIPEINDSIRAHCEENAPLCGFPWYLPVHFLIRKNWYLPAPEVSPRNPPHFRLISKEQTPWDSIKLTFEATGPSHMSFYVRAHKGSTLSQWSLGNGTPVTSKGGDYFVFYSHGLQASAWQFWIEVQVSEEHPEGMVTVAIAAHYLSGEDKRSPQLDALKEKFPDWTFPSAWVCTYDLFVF
# [5] = molecular target: T4, A-DA lipid probe targets in A549 cells (Homo sapiens, UniProt Q8N5I4)
# T4 sequence (Q8N5I4 1-330): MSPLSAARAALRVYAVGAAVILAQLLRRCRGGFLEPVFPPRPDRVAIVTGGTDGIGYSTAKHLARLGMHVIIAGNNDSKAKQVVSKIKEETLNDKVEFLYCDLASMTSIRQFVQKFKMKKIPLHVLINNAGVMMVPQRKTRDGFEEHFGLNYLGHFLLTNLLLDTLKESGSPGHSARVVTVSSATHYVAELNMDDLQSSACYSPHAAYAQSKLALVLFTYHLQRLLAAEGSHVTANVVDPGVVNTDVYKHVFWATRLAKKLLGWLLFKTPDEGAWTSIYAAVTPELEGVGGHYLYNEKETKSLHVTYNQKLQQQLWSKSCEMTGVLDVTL
# [6] = molecular target: T5, A-DA lipid probe targets in A549 cells (Homo sapiens, UniProt Q9NS69)
# T5 sequence (Q9NS69 1-142): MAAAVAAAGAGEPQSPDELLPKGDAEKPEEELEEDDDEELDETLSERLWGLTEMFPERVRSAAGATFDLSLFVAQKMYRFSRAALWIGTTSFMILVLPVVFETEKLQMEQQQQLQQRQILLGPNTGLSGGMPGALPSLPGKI
# Sequence of A-DA lipid probe targets in A549 cells (Homo sapiens, UniProt Q9NX47) (Q9NX47 whole entry): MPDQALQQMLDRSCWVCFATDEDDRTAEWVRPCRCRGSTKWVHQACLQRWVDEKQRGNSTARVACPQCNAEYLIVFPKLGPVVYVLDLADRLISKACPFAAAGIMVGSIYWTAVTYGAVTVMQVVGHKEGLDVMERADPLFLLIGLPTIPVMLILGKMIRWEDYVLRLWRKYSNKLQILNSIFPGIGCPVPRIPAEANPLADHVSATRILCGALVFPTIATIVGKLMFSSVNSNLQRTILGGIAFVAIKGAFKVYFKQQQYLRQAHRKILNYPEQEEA
compound,measurement,setting,value
"O=C(/C=C/c1cccnc1)NCCCCC1CCN(C(=O)c2ccccc2)CC1 [FK-866, reference compound]","SILAC ratio, MARCH5 (Q3KNM2)",[1]; competitor 25 μM,1.3
same,"SILAC ratio, UGT1A7 (Q9HAW7)",[2]; competitor 25 μM,2.1
same,"SILAC ratio, DHRS3 (O75911)",[3]; competitor 25 μM,2.0
same,"SILAC ratio, ERMP1 (Q7Z2K6)",[4]; competitor 25 μM,1.6
same,"SILAC ratio, DHRSX (Q8N5I4)",[5]; competitor 25 μM,1.4
same,"SILAC ratio, TOMM22 (Q9CPQ3)",[6]; competitor 25 μM,1.3
C=CCN(C)CCCCCCOc1ccc(C(=O)c2ccc(Br)cc2)c(F)c1 [Ro488071],"SILAC ratio, MARCH5 (Q3KNM2)",[1]; competitor 5 μM,1.2
same,"SILAC ratio, UGT1A7 (Q9HAW7)",[2]; competitor 5 μM,1.6
same,"SILAC ratio, UGT1A7 (Q9HAW7)",[2]; competitor 50 μM,40.0
same,"SILAC ratio, DHRS3 (O75911)",[3]; competitor 5 μM,1.8
same,"SILAC ratio, DHRS3 (O75911)",[3]; competitor 50 μM,3.1
same,"SILAC ratio, ERMP1 (Q7Z2K6)",[4]; competitor 5 μM,1.4
same,"SILAC ratio, ERMP1 (Q7Z2K6)",[4]; competitor 50 μM,3.2
same,"SILAC ratio, DHRSX (Q8N5I4)",[5]; competitor 5 μM,1.6
same,"SILAC ratio, DHRSX (Q8N5I4)",[5]; competitor 50 μM,2.7
same,"SILAC ratio, TOMM22 (Q9CPQ3)",[6]; competitor 5 μM,1.4
same,"SILAC ratio, TOMM22 (Q9CPQ3)",[6]; competitor 50 μM,1.4
